Where two headings read alike, the source gives them in different places.
Key:
DRB1*0802 (DR8w2) = biological target: T1, DRB1*0802 (DR8w2) (Homo sapiens, UniProt P01903+P01911, A100R/A103L/A169T/F76Y/H45Y/I96F/K41T/L162R/M171V/P40S/Q125H/Q178H/Q39Y/Q99D/R218S/R42G/S66Y/V115G/W38E); test: biochemical; type: binding
T1 construct: Epstein-Barr virus (EBV) transformed homozygous cell lines were used as sources; endogenous in cells; host or cells: OLL (EBV-transformed homozygous B cell line)

DRB5*0101 (DR2w2a) = biological target: T2, DRB5*0101 (DR2w2a) (Homo sapiens, UniProt P01903+Q30154); test: biochemical; type: binding
T2 construct: Epstein-Barr virus (EBV) transformed homozygous cell lines were used as sources; endogenous in cells; host or cells: GM3107 (EBV-transformed homozygous B cell line)

DRB1*1101 (DR5w11) = biological target: T3, DRB1*1101 (DR5w11) (Homo sapiens, UniProt P01903+P01911, A100R/A169T/A87E/I96F/K41T/L162R/M171V/P40S/Q125H/Q178H/Q39Y/Q99D/R42S/S66Y/T262R/V115G/W38E); test: biochemical; type: binding
T3 construct: Epstein-Barr virus (EBV) transformed homozygous cell lines were used as sources; endogenous in cells; host or cells: SWEIG (EBV-transformed homozygous B cell line)
T3 sequence (P01903 26-254, other chains not shown): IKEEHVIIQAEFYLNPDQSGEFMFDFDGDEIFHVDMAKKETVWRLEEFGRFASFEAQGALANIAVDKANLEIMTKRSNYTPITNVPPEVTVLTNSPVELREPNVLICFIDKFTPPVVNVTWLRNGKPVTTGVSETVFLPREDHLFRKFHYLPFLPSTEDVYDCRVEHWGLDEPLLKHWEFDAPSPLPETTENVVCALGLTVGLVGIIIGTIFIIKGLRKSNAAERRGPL

DRB1*1201 (DR5w12) = biological target: T4, DRB1*1201 (DR5w12) (Homo sapiens, UniProt P01903+P01911, A100R/A169T/D57E/D86V/F55L/H45Y/K41T/L162R/M171V/P40S/Q125H/Q178H/Q39Y/Q99D/R42G/S66L/T262R/V114A/V67L/W38E/Y59H/Y61H/Y89S); test: biochemical; type: binding
T4 construct: Epstein-Barr virus (EBV) transformed homozygous cell lines were used as sources; endogenous in cells; host or cells: Herluf (EBV-transformed homozygous B cell line)

DRB1*0301 (DR3w17) [1] = biological target: T5, DRB1*0301 (DR3w17) (Homo sapiens, UniProt P01903+P01911, A100K/A102G/A103R/A169T/F55Y/I96L/K41T/L162R/M171V/P40S/Q125H/Q178H/Q39Y/R42S/S66N/T106N/T262R/W38E/Y61H); conditions: read-out: Binding Capacity (IC 50% nM) Other Alleles DR3
DRB1*0901 (DR9) = biological target: T6, DRB1*0901 (DR9) (Homo sapiens, UniProt P01903+P01911, A100R/A103E/D57H/D86V/F55Y/F60I/F76Y/I96F/K127E/L162R/M171V/P40D/Q125H/Q99R/R33Q/R42F/S133A/S66N/T210M/V115G/W38K/Y107V/Y59G/Y89S); test: biochemical; type: binding
T6 construct: Epstein-Barr virus (EBV) transformed homozygous cell lines were used as sources; endogenous in cells

DRB1*1501 (DR2w2b) = biological target: T7, DRB1*1501 (DR2w2b) (Homo sapiens, UniProt P01903+P01911); test: biochemical; type: binding
T7 construct: expressed in transfected cells; host or cells: transfected fibroblasts L466.1

DRB1*0301 (DR3w17) [2] = biological target: T5, DRB1*0301 (DR3w17); test: biochemical; conditions: Binding Capacity (IC50% nM) DR3
DRB1*0405 (DR4w15) = biological target: T8, DRB1*0405 (DR4w15) (Homo sapiens, UniProt P01903+P01911, A100R/A169T/D86S/F76Y/I96L/K127E/L162R/M171V/N62H/P40V/Q125Y/R42H/S133A/S149N/S66Y/V115G/V209L/W38E); test: biochemical; type: binding
T8 construct: Epstein-Barr virus (EBV) transformed homozygous cell lines were used as sources; endogenous in cells; host or cells: KT3 (EBV-transformed homozygous B cell line)

DRB1*0401 (DR4w4) = biological target: T9, DRB1*0401 (DR4w4) (Homo sapiens, UniProt P01903+P01911, A100K/A169T/F76Y/I96L/K127E/L162R/M171V/N62H/P40V/Q125Y/R42H/S133A/S149N/S66Y/V115G/V209L/W38E); test: biochemical; type: binding
T9 construct: Epstein-Barr virus (EBV) transformed homozygous cell lines were used as sources; endogenous in cells; host or cells: PREISS (EBV-transformed homozygous B cell line)

DRB1*1302 (DR6w19) = biological target: T10, DRB1*1302 (DR6w19) (Homo sapiens, UniProt P01903+P01911, A100E/A169T/K41T/L162R/M171V/P40S/Q125H/Q178H/Q39Y/Q99D/R42S/S66N/T262R/V115G/W38E/Y61H); test: biochemical; type: binding
T10 construct: Epstein-Barr virus (EBV) transformed homozygous cell lines were used as sources; the source of Class II molecules the EBV transformed homozygous cell line H0301; endogenous in cells; host or cells: H0301 (EBV-transformed homozygous B cell line)

DRB1*0101 (DR1) = biological target: T11, DRB1*0101 (DR1) (Homo sapiens, UniProt P01903+P01911, A100R/D57E/F55L/F60I/F76Y/I96L/L162R/M171V/P40L/Q125E/R42F/V115G/Y59C); test: biochemical; type: binding; conditions: Binding Capacity (IC 50% nM) DR1,4,7 DRB1
T11 construct: Epstein-Barr virus (EBV) transformed homozygous cell lines were used as sources; endogenous in cells; host or cells: LG2 (EBV-transformed homozygous B cell line)

DRB1*0701 (DR7) = biological target: T12, DRB1*0701 (DR7) (Homo sapiens, UniProt P01903+P01911, A100R/A102G/A103Q/D57E/D86V/E43K/F76Y/K127E/L162R/M171V/P40G/Q125H/Q99D/R33Q/R42Y/R54Q/S133A/S66F/T210M/V115G/Y107V/Y59L/Y89S); test: biochemical; type: binding
T12 construct: Epstein-Barr virus (EBV) transformed homozygous cell lines were used as sources; endogenous in cells; host or cells: PITOUT (EBV-transformed homozygous B cell line)

[3] = read-out: Binding Capacity (IC 50% nM) Other Alleles DR8w2
[4] = Binding Capacity (IC50% nM) DR5w11
[5] = read-out: Binding Capacity (IC 50% nM) Other Alleles DR5w11
[6] = read-out: Binding Capacity (IC 50% nM) Other Alleles DR5w12
[7] = read-out: Binding Capacity (IC 50% nM) Other Alleles DR9
[8] = Binding Capacity (IC 50% nM) Other Alleles DR2w2b
[9] = Binding Capacity (IC 50% nM) DR1,4,7 DR4w4
[10] = Binding Capacity (IC 50% nM) Other Alleles DR2w2a
[11] = Binding Capacity (IC 50% nM) Other Alleles DR4w15
[12] = read-out: Binding Capacity (IC 50% nM) Other Alleles DR6w19
[13] = Binding Capacity (IC 50% nM) DR1,4,7 DR7

SMILES	IC50 (DRB1*0802 (DR8w2); [3]) [nM]	IC50 (DRB1*1101 (DR5w11); [4]) [nM]	IC50 (DRB1*1101 (DR5w11); [5]) [nM]	IC50 (DRB1*1201 (DR5w12); [6]) [nM]	IC50 (DRB1*0301 (DR3w17) [1]) [nM]	IC50 (DRB1*0901 (DR9); [7]) [nM]	IC50 (DRB1*1501 (DR2w2b); [8]) [nM]	IC50 (DRB1*0301 (DR3w17) [2]) [nM]	IC50 (DRB1*0401 (DR4w4); [9]) [nM]	IC50 (DRB1*0101 (DR1)) [nM]	IC50 (DRB5*0101 (DR2w2a); [10]) [nM]	IC50 (DRB1*0405 (DR4w15); [11]) [nM]	IC50 (DRB1*1302 (DR6w19); [12]) [nM]	IC50 (DRB1*0701 (DR7); [13]) [nM]	also measured
CC[C@H](C)[C@H](N)C(=O)N[C@@H](CCCCN)C(=O)N[C@@H](CC(C)C)C(=O)N1CCC[C@H]1C(=O)N[C@H](C(=O)N[C@H](C(=O)N[C@@H](CC(C)C)C(=O)N[C@@H](C)C(=O)N[C@@H](Cc1ccccc1)C(=O)N[C@@H](C)C(=O)N[C@H](C(=O)N[C@@H](CS)C(=O)N[C@@H](Cc1ccccc1)C(=O)N[C@@H](CC(C)C)C(=O)N[C@H](C(=O)N1CCC[C@H]1C(=O)O)[C@@H](C)CC)[C@@H](C)O)[C@@H](C)CC)[C@@H](C)CC [Peptide 1136.12]	> 1000	> 10000	> 1000	> 1000	> 1000	> 1000	< 1000	> 10000	< 1000	< 1000					IC50 (DRB5*0101 (DR2w2a); read-out: Binding Capacity (IC 50% nM) Other Alleles DR2w2a): > 1000 nM; IC50 (DRB1*1201 (DR5w12); Binding Capacity (IC50% nM) DR5w12): > 10000 nM; IC50 (DRB1*0405 (DR4w15); read-out: Binding Capacity (IC 50% nM) Other Alleles DR4w15): > 1000 nM; IC50 (DRB1*1302 (DR6w19); Binding Capacity (IC 50% nM) Other Alleles DR6w19): < 1000 nM; IC50 (DRB1*0701 (DR7); read-out: Binding Capacity (IC 50% nM) DR1,4,7 DR7): > 1000 nM
CC[C@H](C)[C@H](NC(=O)[C@H](CC(C)C)NC(=O)[C@H](Cc1ccccc1)NC(=O)[C@H](CS)NC(=O)[C@@H](NC(=O)[C@H](C)NC(=O)[C@@H](N)Cc1ccccc1)[C@@H](C)O)C(=O)N1CCC[C@H]1C(=O)N[C@@H](CC(C)C)C(=O)N[C@H](C(=O)N[C@@H](CO)C(=O)N[C@@H](CCC(N)=O)C(=O)N[C@@H](Cc1ccccc1)C(=O)N[C@@H](Cc1ccccc1)C(=O)N[C@@H](CC(C)C)C(=O)N1CCC[C@H]1C(=O)O)[C@@H](C)O [Peptide 1136.14]	> 1000	> 10000	> 1000	> 1000	> 1000	> 1000	< 1000	> 10000		< 1000	< 1000	< 1000	> 1000	< 1000	IC50 (DRB1*0802 (DR8w2); Binding Capacity (IC50% nM) DR8w2): > 10000 nM; IC50 (DRB1*0401 (DR4w4); read-out: Binding Capacity (IC 50% nM) DR1,4,7 DR4w4): > 1000 nM; IC50 (DRB1*0701 (DR7); Binding Capacity (IC50% nM) DR7): 100 nM
CC(C)C[C@H](NC(=O)[C@H](Cc1c[nH]c2ccccc12)NC(=O)[C@@H](NC(=O)[C@H](Cc1ccccc1)NC(=O)[C@@H](NC(=O)[C@@H]1CCCN1C(=O)[C@H](CC(C)C)NC(=O)[C@H](C)NC(=O)[C@@H]1CCCN1C(=O)[C@H](CC(C)C)NC(=O)[C@H](Cc1ccccc1)NC(=O)[C@H](Cc1ccccc1)NC(=O)[C@H](CCC(N)=O)NC(=O)[C@H](CO)NC(=O)[C@@H](NC(=O)[C@@H](N)CC(C)C)[C@@H](C)O)C(C)C)[C@@H](C)O)C(=O)O [Peptide 1136.16]			> 1000	> 1000	> 1000			> 10000	< 1000	< 1000	< 1000	< 1000	> 1000	< 1000	IC50 (DRB1*0802 (DR8w2); Binding Capacity (IC 50% nM) Other Alleles DR8w2): < 1000 nM; IC50 (DRB1*0901 (DR9); Binding Capacity (IC 50% nM) Other Alleles DR9): < 1000 nM; IC50 (DRB1*1501 (DR2w2b); read-out: Binding Capacity (IC 50% nM) Other Alleles DR2w2b): > 1000 nM
